Laboratory results as given in patent US20100099673A1, “DECAHYDROQUINOLINE ANALOGS AS CB2 RECEPTOR MODULATORS, USEFUL IN THE TREATMENT OF PAIN, RESPIRATORY AND NON-RESPIRATORY DISEASES” (priority 2007, published 2010).
Read-outs that look alike come from different tables or passages of the source.

Assays:
[1] = biological target: human CB1 (Homo sapiens, UniProt P21554); assay: Cyclic AMP assay (HTRF), CHO cells expressing human CB1; format: cell-based
Procedure: (§1) Chinese Hamster Ovary cells (CHO) expressing human CB1 or human CB2 (3.3×10^5 cells/ml) were preincubated for 15 min at room temperature with tested agonist and 3-isobutyl-1-methylxanthine (IBMX; 200 μM) in phosphate buffered saline containing 1 mg/ml BSA (assay buffer) followed by 30 min incubation with forskolin in a total volume of 10 μl. The optimal forskolin concentration for each cell line was established in a separate experiment and adjusted to stimulate 70% of maximal cAMP response. cAMP content was measured using an HTRF assay (CisBio) according to the manufacturer's two step protocol.
(§2) In this assay, compounds of the invention have an IP ranging from 1 nM to >17000 nM. The Examples below have an IP ranging from 1 nM to >17000 nM.

[2] = biological target: human CB2 (Homo sapiens, UniProt P34972); assay: Cyclic AMP assay (HTRF), CHO cells expressing human CB2; format: cell-based; conditions: for Emax: read-out: CB2 Emax
Chain of human CB2 (P34972 whole entry): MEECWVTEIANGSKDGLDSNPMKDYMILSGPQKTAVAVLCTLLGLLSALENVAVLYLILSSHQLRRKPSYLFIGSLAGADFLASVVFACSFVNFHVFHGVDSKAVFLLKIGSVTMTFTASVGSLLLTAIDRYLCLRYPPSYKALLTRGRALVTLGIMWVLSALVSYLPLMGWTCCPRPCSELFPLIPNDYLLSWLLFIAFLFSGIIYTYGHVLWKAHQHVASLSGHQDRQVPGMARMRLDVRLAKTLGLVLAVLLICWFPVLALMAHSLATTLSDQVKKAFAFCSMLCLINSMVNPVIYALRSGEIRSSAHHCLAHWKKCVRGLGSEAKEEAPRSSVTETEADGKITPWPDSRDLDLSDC
Procedure: as §1, §2

[3] = IP of agonist in forskolin-stimulated cAMP HTRF assay, CHO cells expressing human CB1, read-out: CB1 (HTRF)
[4] = IP of agonist in forskolin-stimulated cAMP HTRF assay, CHO cells expressing human CB2, read-out: CB2 (HTRF)
[5] = forskolin-stimulated cAMP HTRF assay, CHO cells expressing human CB2

Chain of human CB1 (P21554 whole entry): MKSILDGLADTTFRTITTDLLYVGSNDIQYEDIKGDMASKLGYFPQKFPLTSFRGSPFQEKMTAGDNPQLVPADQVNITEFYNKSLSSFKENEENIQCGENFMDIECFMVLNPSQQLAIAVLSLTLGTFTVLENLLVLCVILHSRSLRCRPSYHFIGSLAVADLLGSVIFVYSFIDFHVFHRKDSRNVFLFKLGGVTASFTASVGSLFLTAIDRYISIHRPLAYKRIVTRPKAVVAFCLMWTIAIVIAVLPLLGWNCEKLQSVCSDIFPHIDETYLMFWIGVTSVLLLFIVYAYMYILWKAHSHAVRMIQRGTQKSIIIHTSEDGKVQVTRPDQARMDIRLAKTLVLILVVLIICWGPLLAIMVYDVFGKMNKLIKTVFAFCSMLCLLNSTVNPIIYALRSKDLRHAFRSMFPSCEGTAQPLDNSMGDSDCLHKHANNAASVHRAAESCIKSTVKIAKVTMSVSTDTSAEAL

SMILES	EC50 [1, 3] [nM]	EC50 [2, 4] [nM]	Emax [2, 5] [%]	EC50 [1] [nM]	EC50 [2] [nM]	Emax ([2]; CHO) [%]
O=C(c1cccnc1)N1CC[C@](O)(c2ccccc2)[C@H]2CCCC[C@H]21 (relative stereo) [Example 135, cis-4-phenyl-1-(pyridin-3-ylcarbonyl)decahydroquinolin-4-ol]	6780	10	100	–	–	–
O=C(c1ccon1)N1CC[C@](O)(c2ccccc2)[C@H]2CCCC[C@H]21 (single isomer, unassigned) [Example 131, 1-(isoxazol-3-ylcarbonyl)-4-phenyldecahydroquinolin-4-ol]	> 17000	37	100	–	–	–
O=C(c1ccccc1)N1CCC(O)(c2cccnc2)[C@H]2CCCC[C@@H]21 (stereo in doubt) [Example 258, 1-benzoyl-4-pyridin-3-yldecahydroquinolin-4-ol]	–	938	86	–	–	–
O[C@]1(c2ccccc2)CCN(Cc2n[nH]c3ccccc23)[C@@H]2CCCC[C@@H]21 (stereo in doubt) [Example 274, 1-(1H-indazol-3-ylmethyl)-4-phenyldecahydroquinolin-4-ol]	–	–	–	> 17000	19	102
O=C(c1ccccc1)N1CCC(O)(Cc2ccccc2)[C@H]2CCCC[C@@H]21 (stereo partly shown) [Example 260, 1-benozyl-4-benzyldecahydroquinolin-4-ol]	–	90	93	–	–	–
O=C(Nc1cccnc1)N1CC[C@](O)(c2ccccc2)[C@H]2CCCC[C@H]21 [Example 291, 4-hydroxy-4-phenyl-n-pyridin-3-yloctahydroquinoline-1(2H)-carboxamide]	> 17000	1100	–	–	–	76

Continued by falling EC50 [2, 4], values first:

EC50 [1, 3] [nM]	EC50 [2, 4] [nM]	Emax [2, 5] [%]	SMILES	EC50 [1] [nM]	EC50 [2] [nM]	Emax ([2]; CHO) [%]
> 17000	41	101	Cn1cc(S(=O)(=O)N2CC[C@](O)(c3ccccc3)[C@H]3CCCC[C@H]32)c(C(F)(F)F)n1 (stereo in doubt) [Example 289, 1-{[1-methyl-3-(trifluoromethyl)-1h-pyrazol-4-yl]sulfonyl}-4-phenyldecahydroquinolin-4-ol]	–	–	–
10500	1.3	99	CC(C)(O)c1ccnc(N2CC[C@](O)(c3ccccc3)[C@H]3CCCC[C@H]32)c1 (relative stereo) [Example 287, (cis)-1-[4-(1-hydroxy-1-methylethyl)pyridin-2-yl]-4-phenyldecahydroquinolin-4-ol]	–	–	–
